Source: patent publication US20240269104A1, “METHOD FOR TREATING PARKINSON'S DISEASE” (Olatec Therapeutics, Inc., priority 2021, published 2024)

System: TNFα
Assay: TNFα RNA in the brain by qPCR after MPTP
Type: in vivo, mice
Conditions: 200 mg/kg oral gavage; striatum piece, 24 hours after first MPTP injection
Experimental: Mice were treated dapansutrile or saline and injected with MPTP as described in Example 2.
24 hours after the first injection of MPTP, mice were sacrificed. A piece of brain, centered in the striatum, was taken from each mouse and frozen in liquid nitrogen. Samples were homogenized with Trizol lysis reagent (Thermo Fisher) following the manufacturer's protocol. 1 μg of RNA from each sample was reversely transcribed using the High-Capacity Reverse Transcription kit (Applied BioSystems).
Gene expression measures were performed through qPCR using SYBR Green master mix (Applied Biosystems) and recommended thermal cycling parameters: 1 cycle of polymerase activation for 10 min at 95° C. and 40 cycles of denaturalization for 15 sec at 95° C. plus annealing/extension for 1 min at 60° ° C. (capture). Gene levels of TNFα (a pro-inflammatory cytokine) were normalized to the relation ratio of expression of the GADPH gene following the ΔΔCT method. Primers sequences are detailed below. Final fold-change values were obtained by normalization with naïve condition.

**Q.** Which “expression of TNFα RNA in the brain” value does the source give for `CS(=O)(=O)CCC#N` [dapansutrile, 3-methanesulfonylpropionitrile] here?
**A.** The value was “reduces the expression of TNFα RNA in the brain”.
